This passage reports IC50 results from US12421225B2, “Heteroaromatic amide derivative and medicament containing the same” (KAKEN PHARMACEUTICAL CO., LTD., priority 2018, dated 2025).

human Nav1.7, sequence (Q15858 whole entry): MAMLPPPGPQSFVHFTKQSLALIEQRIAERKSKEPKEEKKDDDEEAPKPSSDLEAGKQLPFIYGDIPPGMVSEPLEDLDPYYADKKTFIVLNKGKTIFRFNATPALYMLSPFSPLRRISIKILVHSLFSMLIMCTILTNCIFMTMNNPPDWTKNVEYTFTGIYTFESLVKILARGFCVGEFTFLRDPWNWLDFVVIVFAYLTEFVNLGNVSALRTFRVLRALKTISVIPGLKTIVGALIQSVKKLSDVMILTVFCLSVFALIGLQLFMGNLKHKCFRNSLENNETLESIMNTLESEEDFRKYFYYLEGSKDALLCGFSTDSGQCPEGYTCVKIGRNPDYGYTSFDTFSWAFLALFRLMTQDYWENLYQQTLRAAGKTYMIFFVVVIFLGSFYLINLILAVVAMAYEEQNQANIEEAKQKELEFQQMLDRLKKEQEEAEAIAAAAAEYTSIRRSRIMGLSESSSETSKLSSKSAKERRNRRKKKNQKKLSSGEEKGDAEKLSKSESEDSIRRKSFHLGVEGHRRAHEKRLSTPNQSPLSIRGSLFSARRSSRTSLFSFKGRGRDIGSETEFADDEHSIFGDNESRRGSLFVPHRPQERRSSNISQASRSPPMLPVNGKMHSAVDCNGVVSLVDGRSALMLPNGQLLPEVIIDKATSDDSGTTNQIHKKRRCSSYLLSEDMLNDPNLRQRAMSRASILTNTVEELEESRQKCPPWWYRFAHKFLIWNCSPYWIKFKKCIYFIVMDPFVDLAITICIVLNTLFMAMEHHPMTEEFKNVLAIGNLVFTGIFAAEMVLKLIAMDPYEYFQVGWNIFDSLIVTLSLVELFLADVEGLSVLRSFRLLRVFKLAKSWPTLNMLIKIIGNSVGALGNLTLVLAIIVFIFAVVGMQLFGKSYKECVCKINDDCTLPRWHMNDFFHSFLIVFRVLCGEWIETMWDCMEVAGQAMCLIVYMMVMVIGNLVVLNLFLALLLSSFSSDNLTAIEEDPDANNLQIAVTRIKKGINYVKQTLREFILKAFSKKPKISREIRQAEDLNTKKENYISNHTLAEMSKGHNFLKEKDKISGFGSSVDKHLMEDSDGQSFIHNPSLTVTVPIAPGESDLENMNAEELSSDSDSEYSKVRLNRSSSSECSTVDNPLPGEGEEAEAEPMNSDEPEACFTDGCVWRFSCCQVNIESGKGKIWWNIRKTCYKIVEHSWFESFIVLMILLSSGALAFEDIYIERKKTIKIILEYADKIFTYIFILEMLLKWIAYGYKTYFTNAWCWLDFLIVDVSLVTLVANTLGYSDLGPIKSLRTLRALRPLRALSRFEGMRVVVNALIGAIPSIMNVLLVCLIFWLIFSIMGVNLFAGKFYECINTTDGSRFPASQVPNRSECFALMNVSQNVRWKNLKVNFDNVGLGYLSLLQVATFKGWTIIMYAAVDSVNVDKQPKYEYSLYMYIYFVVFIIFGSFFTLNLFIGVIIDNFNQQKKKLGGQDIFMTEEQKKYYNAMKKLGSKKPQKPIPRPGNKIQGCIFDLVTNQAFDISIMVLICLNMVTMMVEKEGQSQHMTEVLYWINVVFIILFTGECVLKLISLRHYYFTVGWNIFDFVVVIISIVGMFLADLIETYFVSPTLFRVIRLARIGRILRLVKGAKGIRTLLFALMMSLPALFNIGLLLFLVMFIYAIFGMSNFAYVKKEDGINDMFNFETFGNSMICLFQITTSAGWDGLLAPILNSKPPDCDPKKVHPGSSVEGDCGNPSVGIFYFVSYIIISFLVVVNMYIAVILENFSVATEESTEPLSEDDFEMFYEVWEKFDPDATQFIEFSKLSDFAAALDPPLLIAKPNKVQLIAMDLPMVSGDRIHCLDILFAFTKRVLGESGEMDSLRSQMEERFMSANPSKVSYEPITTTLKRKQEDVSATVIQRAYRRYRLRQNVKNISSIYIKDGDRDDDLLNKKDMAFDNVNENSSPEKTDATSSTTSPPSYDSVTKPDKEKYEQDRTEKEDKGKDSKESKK
human Nav1.7, sequence (Q07699 19-218 partner): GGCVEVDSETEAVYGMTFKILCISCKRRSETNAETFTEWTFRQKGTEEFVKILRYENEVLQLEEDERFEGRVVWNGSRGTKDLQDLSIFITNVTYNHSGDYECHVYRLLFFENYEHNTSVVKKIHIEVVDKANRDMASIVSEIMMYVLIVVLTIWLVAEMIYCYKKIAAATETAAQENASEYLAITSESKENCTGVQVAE

For one assay, the target named is human Nav1.7 (Homo sapiens (Human), UniProt Q15858). Kind of assay: Human Nav1.7 inhibitory activity evaluation (automated patch clamp QPatch16X, HEK293A cells stably expressing human Nav1.7 and human Navβ1). It is filed as cell-based. The settings on record: HEK293A cells stably expressing human Nav1.7 and human Navβ1, automated patch clamp QPatch16X. Put shortly:
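QPatch16X whole-cell recordings at room temperature from HEK293A cells stably expressing human Nav1.7 with Navβ1, CsF-based internal solution, pH 7.4 external, 0.1% DMSO. From −100 mV holding, protocol included a 15 s hold at a potential inactivating ~30-40% of channels; IC50 from inward current at the second −10 mV pulse.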
A general note: In patch-clamp work, channel activity is measured electrically.
What is called IC50 is the concentration that gives 50% inhibition. Higher therefore signals a need for much substance. On to `O=C(N[C@H]1COc2ccc(Cl)cc2C1)c1nc2n(c1-c1ccccn1)CCCC2` [Example 18, (R)—N-(6-chlorochroman-3-yl)-3-(pyridin-2-yl)-5,6,7,8-tetrahydroimidazo[1,2-a]pyridine-2-carboxamide], for which the half-maximal inhibitory concentration (IC50) is less than 1 µM.

Consider `CN1Cc2nc(C(=O)N3CC(Oc4cccc(C(F)(F)F)n4)C3)cn2CC1c1ccccc1` (stereo not drawn) [Example 63], for which the 50% inhibitory concentration (IC50) is less than 10 µM.

`N#Cc1ccc2c(c1)C[C@@H](NC(=O)c1cc3n(n1)CCC(CC1CC1)O3)CO2` (single isomer, unassigned) [97 (isomer A)] gave a 50% inhibitory concentration (IC50) of less than 1 µM.

On to `CN(Cc1ccccc1)CC1CCn2nc(C(=O)N[C@H]3COc4ccc(Cl)cc4C3)cc2O1` (stereo partly drawn) [Example 121], for which the IC50 was less than 10 µM.

On to `C[C@@H]1CCn2nc(C(=O)N[C@H]3COc4ccc(Br)cc4C3)cc2O1` [Example 89], for which the 50% inhibitory concentration (IC50) was less than 1 µM.

Staying with this assay, now noted: human Nav1.7, automated patch clamp.
In turn, `O=C(c1cn2c(n1)CCC(c1cccc(N3CCCC3)n1)C2)N1CCC(c2ccccc2)C1` (stereo not drawn) [Example 310] displayed a concentration for half-maximal inhibition (IC50) of less than 10 µM.

Compound `O=C(N[C@H]1COc2ccc(CCOC(F)F)cc2C1)c1cc2n(n1)CCC(C(F)F)O2` (single isomer, unassigned) [165 (isomer B)] gave a 50% inhibitory concentration (IC50) of less than 10 µM.

Consider `O=C(N[C@H]1COc2ccc(C(F)(F)F)cc2C1)c1nn2c(c1-c1cccc(CC(F)(F)F)n1)COCC2` [Example 523], for which the 50% inhibitory concentration (IC50) is less than 1 µM.

As for `O=C(N[C@H]1COc2ccc(CC(F)(F)F)cc2C1)c1cc2n(n1)CC(COCC(F)(F)F)O2` (stereo partly drawn) [Example 191], the half-maximal inhibitory concentration (IC50) was less than 1 µM.

In the case of `N#Cc1ccc2c(c1)C(F)[C@@H](NC(=O)c1cc3n(n1)CCC(COCC1CC1)O3)CO2` (single isomer, unassigned) [617 (isomer B)], the IC50 is less than 10 µM.

Take `O=C(N[C@H]1COc2ccc(Cl)cc2C1)c1cn2c(n1)CC(CNCC(F)(F)F)CO2` (stereo partly drawn) [Example 548]: the concentration for half-maximal inhibition (IC50) was less than 10 µM.

`O=C(N[C@H]1COc2ccc(C(F)(F)F)cc2C1OCC(F)(F)F)c1cc2n(n1)CCC(C(F)F)O2` (stereo partly drawn) [Example 536]: the 50% inhibitory concentration (IC50) was less than 10 µM.

As for `O=C(NCC1COc2ccc(Cl)cc2C1)c1cc2n(n1)CCC(COC(F)(F)F)O2` (stereo not drawn) [Example 542], the IC50 was less than 10 µM.

As for `O=C(N[C@H]1COc2ccc(C(F)(F)F)cc2C1)c1cc2n(n1)CCC(C1COCCO1)O2` (stereo partly drawn) [Example 620], the 50% inhibitory concentration (IC50) is less than 1 µM.

`O=C(N[C@H]1COc2ccc(C(F)(F)F)cc2C1O)c1cc2n(n1)CC(CSCC(F)(F)F)O2` (single isomer, unassigned) [641 (isomer A)] displayed a half-maximal inhibitory concentration (IC50) of less than 10 µM.

On to `O=C(N[C@H]1COc2ccc(C(F)(F)F)cc2C1O)c1cc2n(n1)CC(CCCOCC(F)F)O2` (single isomer, unassigned) [610 (isomer B)], for which the IC50 is less than 10 µM.

`O=C(NC1COc2ccc(C(F)(F)F)cc2C1)c1cc2n(n1)CCN(CCC1CC1)C2` (stereo not drawn) [Example 264]: the concentration for half-maximal inhibition (IC50) is less than 1 µM.

`N#Cc1ccc2c(c1)C[C@@H](NC(=O)c1cc3n(n1)CCC(CSC(F)(F)F)O3)CO2` (single isomer, unassigned) [156 (isomer B)]: the concentration for half-maximal inhibition (IC50) is less than 10 µM.

Compound `N#Cc1ccc2c(c1)C[C@@H](NC(=O)c1cc3n(n1)CCC(COCCC(F)(F)F)O3)CO2` (stereo partly drawn) [Example 418] returned an IC50 of less than 10 µM.

As to `O=C(N[C@H]1COc2ccc(Cl)cc2C1)c1cc2n(n1)CCC(OCCOCC(F)(F)F)CO2` (stereo partly drawn) [Example 682], the IC50 was less than 10 µM.

Take `O=C(N[C@H]1COc2ccc(COCC(F)(F)F)cc2C1)c1cc2n(n1)CCC(C1COCCO1)O2` (stereo partly drawn) [Example 631]: the IC50 is less than 1 µM.

Compound `O=C(N[C@H]1COc2ccc(C3CC3)cc2C1)c1nc2n(c1-c1ccccn1)CCOC2` [Example 342] registered an IC50 of less than 1 µM.

As to `O=C(N[C@H]1COc2ccc(-c3ccncc3)cc2C1)c1cc2n(n1)CCC(C(F)(F)F)O2` (stereo partly drawn) [Example 376], the concentration for half-maximal inhibition (IC50) was less than 10 µM.

In turn, `O=C(N[C@H]1COc2ccc(C(F)(F)F)cc2C1F)c1cc2n(n1)CCN(CCOCC(F)(F)F)C2` (stereo partly drawn) [Example 645] had an IC50 of less than 1 µM.

`O=C(NC1COc2ccc(F)c(F)c2C1)c1cc2n(n1)CC(CCCOCC(F)F)O2` (stereo not drawn) [Example 640] displayed an IC50 of less than 1 µM.

In the case of `N#Cc1ccc2c(c1)C[C@@H](NC(=O)c1cc3n(n1)CCC(CCOC(F)(F)F)O3)CO2` (single isomer, unassigned) [144 (isomer A)], the IC50 is less than 1 µM.

As to `COc1ncccc1C1CCn2nc(C(=O)N[C@H]3COc4ccc(Cl)cc4C3)cc2O1` (stereo partly drawn) [Example 367], the IC50 is less than 1 µM.

Take `O=C(N[C@H]1COc2ccc(Cl)cc2C1)c1cc2n(n1)CC(COCCOCC(F)(F)F)O2` (stereo partly drawn) [Example 658]: the IC50 is less than 1 µM.

Compound `O=C(N[C@H]1COc2ccc(C(F)(F)F)cc2C1F)c1cc2n(n1)CCC(COCC(F)F)O2` (stereo partly drawn) [Example 624] yielded an IC50 of less than 1 µM.

In turn, `O=C(NC1COc2ccc(F)c(F)c2C1)c1cc2n(n1)CCC(COCC(F)(F)F)O2` (stereo not drawn) [Example 627] came in with a half-maximal inhibitory concentration (IC50) of less than 10 µM.

`O=C(N[C@H]1COc2ccc(C(F)(F)F)cc2C1)c1cc2n(n1)CCC(COCCOCC(F)(F)F)O2` (stereo partly drawn) [Example 663] yielded a concentration for half-maximal inhibition (IC50) of less than 1 µM.

Compound `O=C(N[C@H]1COc2ccc(C(F)(F)F)cc2C1)c1cc2n(n1)CC(COCC1CC1)CO2` (stereo partly drawn) [Example 539] registered an IC50 of less than 10 µM.

With `O=C(N[C@H]1COc2ccc(C(F)(F)F)cc2C1)c1cc2n(n1)CCN(CCOCC(F)(F)F)C2` [Example 644], the half-maximal inhibitory concentration (IC50) was less than 1 µM.

The compound `O=C(N[C@H]1COc2ccc(C(F)(F)F)cc2C1)c1cc2n(n1)CCN(CC1CCOC1)C2` (stereo partly drawn) [Example 669] registered an IC50 of less than 10 µM.

Consider `O=C(N[C@H]1COc2ccc(C(F)(F)F)cc2C1F)c1cc2n(n1)CCN(CCOC1CCC1)C2` (stereo partly drawn) [Example 625], for which the IC50 was less than 1 µM.

In turn, `O=C(N[C@H]1COc2ccc(C(F)(F)F)cc2C1)c1nn2c(c1-c1ccn[nH]1)OCC2` [Example 249] had a 50% inhibitory concentration (IC50) of less than 10 µM.

In turn, `Cc1cnc(-c2ccc3c(c2)C[C@@H](NC(=O)c2cc4n(n2)CC(COCC(F)(F)F)O4)CO3)cn1` (stereo partly drawn) [Example 193] displayed a 50% inhibitory concentration (IC50) of less than 10 µM.

As for `CCC1CCn2nc(C(=O)N[C@H]3COc4ccc(C(F)(F)F)cc4C3O)cc2O1` (stereo partly drawn) [Example 599], the IC50 is less than 1 µM.

As for `O=C(N[C@H]1COc2ccc(C(F)(F)F)cc2C1)c1nc2n(c1-c1cccnc1OCC(F)(F)F)CCOC2` [Example 346], the IC50 is less than 10 µM.

Consider `O=C(N[C@H]1COc2ccc(C(F)(F)F)cc2C1)c1cc2n(n1)CCC(C(F)F)O2` (single isomer, unassigned) [161 (isomer B)], for which the IC50 is less than 10 µM.

As for `N#Cc1ccc2c(c1)C[C@@H](NC(=O)c1cc3n(n1)CCN(CC1CCC1)C3)CO2` [Example 498], the IC50 was less than 1 µM.

With `O=C(N[C@H]1COc2ccc(CC(F)F)cc2C1)c1cc2n(n1)CCC(CC1CCOCC1)O2` (stereo partly drawn) [Example 674], the IC50 is less than 10 µM.

`CN(C)C(=O)COCc1ccc2c(c1)C[C@@H](NC(=O)c1cc3n(n1)CCC(c1ccccc1F)O3)CO2` (stereo partly drawn) [Example 370] yielded an IC50 of less than 10 µM.

`N#Cc1ccc2c(c1)C[C@@H](NC(=O)c1cc3n(n1)CCC(COCCOCC(F)(F)F)O3)CO2` (stereo partly drawn) [Example 664] registered an IC50 of less than 10 µM.

The compound `O=C(N[C@H]1COc2ccc(C(F)(F)F)cc2C1F)c1cc2n(n1)CCC(OCC(F)(F)F)CO2` (stereo partly drawn) [Example 679] had a 50% inhibitory concentration (IC50) of less than 1 µM.

Take `O=C(N[C@H]1COc2ccc(COCC(F)(F)F)cc2C1)c1cc2n(n1)CCC(C1COCCO1)O2` (stereo partly drawn) [Example 638]: the IC50 is less than 10 µM.

`O=C(N[C@H]1COc2ccc(Cl)cc2C1)c1cc2n(n1)CC(Cn1cccn1)O2` (stereo partly drawn) [Example 453] yielded an IC50 of less than 10 µM.

As for `O=C(NC1COc2ccc(Cl)cc2C1)c1cc2n(n1)CCC(c1ccccc1)O2` (stereo not drawn) [Example 355], the IC50 was less than 1 µM.

Consider `O=C(N[C@H]1COc2ccc(C(F)(F)F)cc2C1O)c1cc2n(n1)CCN(CCOCC1CC1)C2` (stereo partly drawn) [Example 652], for which the IC50 is less than 10 µM.

For `CC(C)(F)C1CCn2nc(C(=O)N[C@H]3COc4ccc(C#N)cc4C3)cc2O1` (single isomer, unassigned) [547 (isomer B)], the IC50 is less than 10 µM.

Take `O=C(NC1COc2ccc(Cl)cc2C1O)c1cc2n(n1)CCC(COCC1CC1)O2` (stereo not drawn) [Example 571]: the IC50 is less than 10 µM.

On to `O=C(N[C@H]1COc2ccc(C(F)(F)F)cc2C1)c1cc2n(n1)CCC(CCOC(F)F)O2` (stereo partly drawn) [Example 433], for which the IC50 is less than 1 µM.

`O=C(N[C@H]1COc2ccc(COCC(F)(F)F)cc2C1)c1cc2n(n1)CC(COCCOCC(F)(F)F)O2` (stereo partly drawn) [Example 661] returned an IC50 of less than 1 µM.

Turning to `O=C(N[C@H]1COc2ccc(Cl)cc2C1)c1cc2n(n1)CCC(C1CC1)O2` (stereo partly drawn) [Example 387], the IC50 was less than 1 µM.

`N#Cc1ccc2c(c1)C[C@@H](NC(=O)c1cc3n(n1)CCC(COCC1CCC1)O3)CO2` (stereo partly drawn) [Example 410] had an IC50 of less than 1 µM.

With `O=C(N[C@H]1COc2ccc(C(F)(F)F)cc2C1O)c1cc2n(n1)CCC(COCC1CC1)O2` (stereo partly drawn) [Example 558], the 50% inhibitory concentration (IC50) was less than 1 µM.

The compound `N#Cc1ccc2c(c1)C[C@@H](NC(=O)c1cc3n(n1)CC(CCCOC(F)F)O3)CO2` (single isomer, unassigned) [248 (isomer B)] came in with a half-inhibitory concentration (IC50) of less than 10 µM.

In turn, `C=Cc1c(C(=O)N[C@H]2COc3ccccc3C2)nc2n1CC(C(F)(F)F)CC2` (stereo partly drawn) [Example 302] displayed an IC50 of less than 10 µM.

`O=C(N[C@H]1COc2ccc(Cl)cc2C1)c1cc2n(n1)CCC(COC(F)(F)F)O2` (stereo partly drawn) [Example 420]: the half-inhibitory concentration (IC50) is less than 1 µM.

For `O=C(N[C@H]1COc2ccc(CC(F)F)cc2C1)c1cc2n(n1)CCC(C1CCCO1)O2` (stereo partly drawn) [Example 668], the IC50 was less than 10 µM.

`O=C(N[C@H]1COc2ccc(COCC(F)(F)F)cc2C1)c1cc2n(n1)CC(CC1CCOCC1)O2` (mixture of isomers) [Example 605] registered a half-maximal inhibitory concentration (IC50) of less than 1 µM.

`COC(C)(C)C#CC1CCn2nc(C(=O)N[C@H]3COc4ccc(C#N)cc4C3)cc2O1` (stereo partly drawn) [Example 394]: the IC50 is less than 10 µM.

The compound `O=C(N[C@H]1COc2ccc(CC(F)F)cc2C1)c1cc2n(n1)C[C@H](CC1CCOCC1)O2` (single isomer, unassigned; isomer a) [590(isomer A)] displayed a half-inhibitory concentration (IC50) of less than 1 µM.
